In general, EC50 refers to the concentration that produces a half-maximal response.

The target of one assay is human GPR120 (Homo sapiens (Human), UniProt Q5NUL3). Briefly: FLIPR assay: intracellular calcium in CHO cells expressing human GPR120. As to conditions: FLIPR calcium assay, CHO cells expressing human GPR120, agonist action. The assay is classed as cell-based. As to the method: All compounds were tested under the FLIPR assay unless otherwise indicated.
human GPR120, sequence (Q5NUL3 whole entry, the tested form may be a part): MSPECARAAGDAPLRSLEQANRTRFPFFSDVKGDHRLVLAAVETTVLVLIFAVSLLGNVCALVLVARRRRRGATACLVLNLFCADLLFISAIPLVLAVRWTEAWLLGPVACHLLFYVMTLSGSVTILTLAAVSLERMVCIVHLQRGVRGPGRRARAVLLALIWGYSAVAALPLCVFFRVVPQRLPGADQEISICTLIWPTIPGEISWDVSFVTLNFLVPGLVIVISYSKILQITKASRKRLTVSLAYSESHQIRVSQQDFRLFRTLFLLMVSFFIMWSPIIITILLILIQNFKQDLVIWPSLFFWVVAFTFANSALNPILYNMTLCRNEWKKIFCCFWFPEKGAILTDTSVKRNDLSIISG
Primers were synthesized in the domains on the opposite sides of the base sequences of the ORFs of the known GPCR and GPR120 in GenBank Accession NOs. […] The base sequences of the primers used are described below. The restriction enzymes, BamHI and EcoRI, recognition sites were introduced for subcloning, respectively.
As samples for PCR, human small intestine Marathon-ready cDNA (CLONTECH, current corporate name: TaKaRa) and cDMA obtained by reverse transcription of mouse BAT-derived RNA were used for human and mouse GPR120 receptor genes, respectively.
Using KOD Plus (TOYOBO) for PCR, 30 cycles of 94° C. for 2 minutes, 94° C. for 15 seconds, 55° C. for 30 seconds and 68° C. for 1 minute were carried out to effect reaction, followed by addition of 0.5 units of ExTaq (TaKaRa) and incubation at 72° C. for 10 minutes to carry out A-addition reaction to terminals. For mouse PCR, 35 cycles were carried out on the condition of a final DMSO concentration of 2%.
Cloning of amplified PCR products was carried out using pCR2.1-TOPO TA cloning kit (Invitrogen). For verification of base sequences, electrophoresis was carried out using BigDye Terminator Cycle Sequencing Ready Reaction Kit Ver.
The GPR120 receptor genes cloned into pCR2.1-TOPO vectors, into which the restriction enzymes, BamHI and EcoRI, recognition sites were introduced, were excised from the vectors by the enzymes and subcloned into the BamHI and EcoRI recognition sites of eukaryotic expression vector EF1/V5-His B (Invitrogen).
Test 2: Production of Expression Cells
Using Lipofectamine 2000 (Invitrogen), cDNA of GPR120 receptor was transfected into CHO/NFAT-BLA cells, and drug-resistant cells were isolated to obtain GPR120 stable expression strains. The GPR120-expressed CHO cells were cultured in DMEM/F12 medium containing 10% fetal bovine serum, 100 units/ml penicillin, 0.1 mg/ml streptomycin sulfate, 250 μg/ml Zeocin, 500 μg/mL Geneticin and 15 mM HEPES.
Test 3: Measurement of Intracellular Calcium Concentration
To the cells was added the test compound diluted with HBSS solution containing 20 mM HEPES and 2.5 mM probenecid. Variations in the intracellular calcium concentration were measured by Fluorescence Imaging Plate Reader (FLIPR; Molecular Devices) to examine the agonist action, and EC50 values were calculated. […]
A general note: A change in cytosolic calcium serves as a functional read-out for many receptors and channels.
Regarding `FC(F)(F)Oc1ccc(Cl)c(N2CCC3(CCC(Cc4nn[nH]n4)CO3)CC2)c1` (racemic) [Example 92, 3-((2H-tetrazol-5-yl)methyl)-9-(2-chloro-5-(trifluoromethoxy)phenyl)-1-oxa-9-azaspiro[5.5]undecane], the half-maximal effective concentration (EC50) came out at 2630 nM.
Same read-out and setting: the figure for `O=C(O)CC1COC2(CCN(c3cc(OC(F)(F)F)ccc3F)CC2)C1` (racemic) [Example 94, 2-(8-(2-fluoro-5-(trifluoromethoxy)phenyl)-1-oxa-8-azaspiro[4.5]decan-3-yl)acetic acid] is 1480 nM.
Same read-out and setting: the figure for `CC1CC(CC(=O)O)CCC12CCN(c1cc(OC(F)(F)F)ccc1Cl)CC2` (single isomer, unassigned) [Example 89a, 2-(3-(2-Chloro-5-(trifluoromethoxy)phenyl)-7-methyl-3-azaspiro[5.5]undecan-9-yl)acetic acid] is 2760 nM; for `CC1CC(CC(=O)O)CCC12CCN(c1cc(OC(F)(F)F)ccc1Cl)CC2` (single isomer, unassigned) [Example 89b, 2-(3-(2-Chloro-5-(trifluoromethoxy)phenyl)-7-methyl-3-azaspiro[5.5]undecan-9-yl)acetic acid] it is 3130 nM.
Regarding `CC1CC(CC(=O)O)CCC12CCN(c1cc(OC(F)(F)F)ccc1Cl)CC2` (single isomer, unassigned) [Example 89c, 2-(3-(2-Chloro-5-(trifluoromethoxy)phenyl)-7-methyl-3-azaspiro[5.5]undecan-9-yl)acetic acid], the concentration giving a half-maximal response (EC50) amounted to 2490 nM.
On the same count and under the same terms, under `O=C(O)CC1CCC2(CCN(c3cc(OC(F)(F)F)ccc3Cl)CC2)OC1` (single isomer, unassigned) [Example 91A, (S)-2-(9-(2-chloro-5-(trifluoromethoxy)phenyl)-1-oxa-9-azaspiro[5.5]undecan-3-yl)acetic acid or (R)-2-(9-(2-chloro-5-(trifluoromethoxy)phenyl)-1-oxa-9-azaspiro[5.5]undecan-3-yl)acetic acid] stands 636 nM.
For `O=C(O)CC1CCC2(CCN(c3cc(OC(F)(F)F)ccc3Cl)CC2)OC1` (single isomer, unassigned) [Example 91B, (S)-2-(9-(2-chloro-5-(trifluoromethoxy)phenyl)-1-oxa-9-azaspiro[5.5]undecan-3-yl)acetic acid or (R)-2-(9-(2-chloro-5-(trifluoromethoxy)phenyl)-1-oxa-9-azaspiro[5.5]undecan-3-yl)acetic acid], the EC50 stood at 1020 nM.
On the same count and under the same terms, the figure for `O=C(O)C[C@@H]1CCC2(CCN(c3cc(OC(F)(F)F)ccc3F)CC2)OC1` (single isomer, unassigned) [Example 93a, (R) or (S) 2-(9-(2-fluoro-5-(trifluoromethoxy)phenyl)-1-oxa-9-azaspiro[5.5]undecan-3-yl)acetic acid] is 1300 nM; for `O=C(O)C[C@@H]1CCC2(CCN(c3cc(OC(F)(F)F)ccc3F)CC2)OC1` (single isomer, unassigned) [Example 93b, (R) or (S) 2-(9-(2-fluoro-5-(trifluoromethoxy)phenyl)-1-oxa-9-azaspiro[5.5]undecan-3-yl)acetic acid] it is 750 nM; for `O=C(O)CC1CCC2(CC1)CCN(c1cc(C(F)(F)F)ccc1Cl)CC2` [Example 2, 2-(3-(2-chloro-5-(trifluoromethyl)phenyl)-3-azaspiro[5.5]undecan-9-y)acetic acid] it is 900 nM.
Take `CC(C(=O)O)C1CCC2(CC1)CCN(c1cc(OC(F)(F)F)ccc1Cl)CC2` (centres unmarked) [Example 3, 2-(3-(2-chloro-5-(trifluoromethoxy)phenyl)-3-azaspiro[5.5]undecan-9-yl)propanoic acid]: the EC50 is 3400 nM.
The same measure, in the same setting: the figure for `O=C(O)CC1CCC2(CC1)CCN(c1cc(OC3CCCC3)ccc1Cl)CC2` [Example 5, 2-(3-(2-chloro-5-(cyclopentyloxy)phenyl)-3-azaspiro[5.5]undecan-9-yl)acetic acid] is 1100 nM.
On the same count and under the same terms, the figure for `COc1cc(F)c(N2CCC3(CCC(CC(=O)O)CC3)CC2)cc1F` [Example 6] is 2420 nM; for `O=C(O)CC1CCC2(CC1)CCN(c1cc(OC(F)(F)F)ccc1F)CC2` [Example 7] it is 410 nM; for `COc1ccc(Cl)c(N2CCC3(CCC(CC(=O)O)CC3)CC2)c1` [Example 8] it is 1670 nM.
The same measure, in the same setting: under `Cc1ccc(Cl)c(N2CCC3(CCC(CC(=O)O)CC3)CC2)c1` [Example 9] stands 2180 nM; under `O=C(O)CC1CCC2(CC1)CCN(c1cc([N+](=O)[O-])ccc1Cl)CC2` [Example 10], 1700 nM; under `CC1(C)Cc2cc(Cl)cc(N3CCC4(CCC(CC(=O)O)CC4)CC3)c2O1` [Example 11], 2850 nM.
In the case of `O=C(O)CC1CCC2(CC1)CCN(c1cc(F)ccc1C(F)F)CC2` [Example 12], the EC50 was determined as 2420 nM.
In the case of `Cc1ccc(C#N)c(N2CCC3(CCC(CC(=O)O)CC3)CC2)c1` [Example 13], the EC50 was 2140 nM.
For `COc1ccc(Cl)cc1N1CCC2(CCC(CC(=O)O)CC2)CC1` [Example 14], the EC50 stood at 3100 nM.
Still for that read-out and setting: the figure for `COc1ccc(C(F)(F)F)cc1N1CCC2(CCC(CC(=O)O)CC2)CC1` [Example 15] is 2360 nM; for `O=C(O)CC1CCC2(CC1)CCN(c1cc(C(F)(F)F)ccc1F)CC2` [Example 16] it is 652 nM; for `N#Cc1ccc(F)cc1N1CCC2(CCC(CC(=O)O)CC2)CC1` [Example 17] it is 2360 nM.
Consider `CC(C)Oc1ccc(Cl)c(N2CCC3(CCC(CC(=O)O)CC3)CC2)c1` [Example 18], for which the EC50 turned out to be 530 nM.
Consider `Cc1cc(C)cc(N2CCC3(CCC(CC(=O)O)CC3)CC2)c1` [Example 19], for which the EC50 is 948 nM.
Same read-out and setting: the figure for `CCC(=O)c1ccc(F)c(N2CCC3(CCC(CC(=O)O)CC3)CC2)c1` [Example 20] is 1660 nM; for `O=C(O)CC1CCC2(CC1)CCN(c1cc(C(F)(F)F)ccc1C(F)(F)F)CC2` [Example 21] it is 3270 nM.
Same read-out and setting: the figure for `O=C(O)CC1CCC2(CC1)CCN(c1cc(C(F)F)cc(C(F)F)c1)CC2` [Example 22] is 3010 nM; for `CC(C)(C)c1cc(N2CCC3(CCC(CC(=O)O)CC3)CC2)cc(C(F)(F)F)c1` [Example 23] it is 3750 nM.
The same measure, in the same setting: the figure for `CC(C)c1cc(C#N)cc(N2CCC3(CCC(CC(=O)O)CC3)CC2)c1` [Example 24] is 3460 nM; for `N#Cc1cc(SC(F)(F)F)cc(N2CCC3(CCC(CC(=O)O)CC3)CC2)c1` [Example 25] it is 1150 nM.
In the case of `CSc1nc(N2CCC3(CCC(CC(=O)O)CC3)CC2)cc(C(F)(F)F)n1` [Example 26], the 50% effective concentration (EC50) is 8300 nM.
The same measure, in the same setting: under `O=C(O)CC1CCC2(CC1)CCN(c1cc(C(F)F)cc(C(F)F)n1)CC2` [Example 27] stands 2990 nM.
On the same count and under the same terms, the figure for `Cc1cc(F)cc(N2CCC3(CCC(CC(=O)O)CC3)CC2)c1` [Example 28] is 3040 nM.
On the same count and under the same terms, the figure for `O=C(O)CC1CCC2(CC1)CCN(c1cc(F)cc(Cl)c1)CC2` [Example 29] is 1790 nM; for `O=C(O)CC1CCC2(CC1)CCN(c1cc(Cl)cc(Cl)c1)CC2` [Example 30] it is 878 nM.
As to `O=C(O)CC1CCC2(CC1)CCN(c1cc(F)cc(C(F)(F)F)c1)CC2` [Example 31], the concentration for a half-maximal effect (EC50) amounted to 1220 nM.
On the same count and under the same terms, under `O=C(O)CC1CCC2(CC1)CCN(c1cc(C(F)(F)F)cc(C(F)(F)F)c1)CC2` [Example 32] stands 2150 nM; under `O=C(O)CC1CCC2(CC1)CCN(c1cc(C(F)(F)F)ccn1)CC2` [Example 33], 3060 nM.

The assay is the same for the next values; noted with them: at 8300 nM; 100% activation defined by reference compound of U.S. Pat. No. 8,367,708.
With `CSc1nc(N2CCC3(CCC(CC(=O)O)CC3)CC2)cc(C(F)(F)F)n1` [Example 26], the “Human GPR120 % activation” value is recorded as 62%.
